Experimental data as given in patent US20230150951A1, “2,5- OR 2,6-DISUBSTITUTED HYDROQUINONE DERIVATIVES WITH AT LEAST ONE CARBOXY, SULFO OR AMIDO GROUP USEFUL AS MEDICAMENTS” (OM PHARMA SA, priority 2020, published 2023).

Tests used:
Assay type in all cases: cell-based
FGF-1 = molecular target: T1, FGF-1 (Homo sapiens, UniProt P05230); experiment: FGF-1 induced sprouting of HUVEC, spheroid-based cellular angiogenesis assay; settings: FGF-1 25 ng/mL preincubated with compound, 24 h
T1 construct: purchased Peprotech 100-17A
How it was run: (§1)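 Spheroids of 400 HUVEC (passage 3–4), embedded in collagen gel, were stimulated with FGF-1, FGF-2 or VEGF-A (final 25 ng/mL) preincubated 30 min at 37°C with compound (final 1.56–100 μM).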

FGF-2 = molecular target: T2, FGF-2 (Homo sapiens, UniProt P09038); experiment: FGF-2 induced sprouting of HUVEC, spheroid-based cellular angiogenesis assay; settings: FGF-2 25 ng/mL preincubated with compound, 24 h
T2 construct: purchased Peprotech 100-18C
How it was run: as §1

VEGF-A = molecular target: T3, VEGF-A (Homo sapiens, UniProt P15692); experiment: VEGF-A induced sprouting of HUVEC, spheroid-based cellular angiogenesis assay; settings: VEGF-A 25 ng/mL preincubated with compound, 24 h, read-out: VEGF-A1 IC50
T3 construct: purchased ProQinase GmbH
T3 sequence (P15692 27-191 isoform P15692-4): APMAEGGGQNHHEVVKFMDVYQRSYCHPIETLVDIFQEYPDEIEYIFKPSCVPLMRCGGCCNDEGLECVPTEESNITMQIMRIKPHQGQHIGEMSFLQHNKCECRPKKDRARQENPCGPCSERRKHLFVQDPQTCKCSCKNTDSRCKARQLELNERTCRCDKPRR
Experimental: Aim of this in vitro method is to assess compounds effects on FGF-2, FGF-1, or VEGF-A induced sprouting of human umbilical vein endothelial cells (HUVEC) in the spheroid-based cellular angiogenesis assay. Before adding the growth factors to the cells, they were preincubated with the compound. Sunitinib was tested as a control (without preincubation).
IC50 values determined for the tested compounds are expressed in microM [μM] and the values for the inhibition of FGF-1, FGF2 and VEGF-A induced growth (sprouting) are listed after each compound in the examples after chemical characterization.
Sprouting test was performed on the compounds dissolved in DMSO to reach 100-fold concentrated stock solutions and dissolved in culture media. Sunitinib as reference compound was provided by ProQinase GmbH. Growth factors were purchased from rhFGF-basic (FGF-2), Peprotech, New Jersey, USA, #100-18C, Lot #0415571; rhFGF-acidic (FGF-1), Peprotech, New Jersey, USA, #100-17A, Lot #031207; hVEGF-A165 (ProQinase GmbH, Freiburg, Germany; 05.02.2010) were used for stimulation of HUVEC cells growth.
Test system: Endothelial cells from human umbilical vein (HUVEC) from pooled donors were stored frozen with 70% medium, 20% FCS, 10% DMSO at about 1×10^6 cells/ampoule. HUVEC cells, primary human umbilical vein endothelial cells (PromoCell, Heidelberg, Germany), were used after passage 3 to 4. Morphology of the cells are adherent, cobblestone-like growing as monolayer and were cultured in endothelial cell growth and basal medium (ECGM/ECBM, PromoCell). The subculture was split 1:3; every 3-5 days, seed out at ca. 1×10^4 cells/cm^2 and incubated at 37° C. with 5% CO2 with a doubling time 24-48 hours
Dilution of test compounds: 100× concentrated solutions (concerning to the final assay concentrations) of each test compound were prepared with the appropriate solvent (in DMSO or in water). These 100×compound solutions were further diluted in endothelial cell growth and basal medium (ECBM) 1:7.5 to get a 13.33× concentrated solution. 75 μl of the 13.33×solution was subsequently mixed with 25 μl of 40× concentrated stimulus (solved in ECBM), resulting in a 10×concentrated stimulus/compound mixture. This mixture (100 μl) was incubated for 30 min at 37° C. and then added to 900 μl gel, containing the HUVEC spheroids (resulting in the final assay concentration).
Test method: the experiments were pursued in modification of the originally published protocol (Korff and Augustin: J Cell Sci 112: 3249-58, 1999). In brief, spheroids were prepared as described (Korff and Augustin: J Cell Biol 143: 1341-52, 1998) by pipetting 400 HUVEC in a hanging drop on plastic dishes to allow overnight spheroid aggregation. 50 HUVEC spheroids were then seeded in 0.9 ml of a collagen gel and pipetted into individual wells of a 24 well plate to allow polymerization. The test compounds were preincubated with the growth factors (FGF-1, FGF-2 or VEGF-A final concentration 25 ng/mL) in a 10-fold concentrated solution and subsequently, 100 μl of this solution was added on top of the polymerized gel. All compounds were diluted in solvent (DMSO or water) as 100×stocks first (which means 100×stocks of each final assay concentration were prepared in solvent). Subsequently, these stocks were further diluted in medium (resulting in the 13.33×stocks of each final assay concentration) with final concentrations tested: 100, 50, 25, 12.5, 6.25, 3.13 and 1.56×10^−6 M). Plates were incubated at 37° C. for 24 hours and fixed by adding 4% PFA (Roth, Karlsruhe, Germany).
Quantification of growth factor inhibition: sprouting intensity of HUVEC spheroids treated with the growth factor and the inhibitors were quantitated by an image analysis system determining the cumulative sprout length per spheroid (CSL).

VEGFR-2 = molecular target: T4, VEGFR-2 (Homo sapiens, UniProt P35968); experiment: VEGF-165 induced phosphorylation of VEGF-Receptor on HUVEC; settings: HUVEC preincubated 60 min, VEGF165 25 ng/mL 2 min; read-out: VEGFR-Phosphorylation inhibition IC50
T4 construct: endogenous in cells; host or cells: primary HUVEC

Human neutrophils [1] = experiment: Inhibition of ROS production in human neutrophils (isoluminol chemiluminescence); settings: Homo sapiens, Neutrophil, fMLP+TNF-α stimulated PMN
How it was run: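 Neutrophils from healthy-donor buffy coats (3×10^6/ml in HBSS with Ca/Mg) pre-incubated 30 min at 37° C with compound (0.1–10 μM), primed with TNF-α 20 ng/ml for 10 min, then added to fibrinogen-coated wells. Isoluminol/HRP chemiluminescence recorded every 25 sec for 250 sec after fMLP (1 μM), background-subtracted.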

Human neutrophils [2] = experiment: Neutrophil adhesion under static conditions; settings: fMLP-stimulated adhesion to fibrinogen; method: 40 μM and 80 μM, concentration of the value not stated
How it was run: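 Donor buffy-coat neutrophils (3×10^6/ml, PBS with Ca/Mg, 10% FCS, pH 7.2) preincubated 30 min at 37° C with 40 μM or 80 μM compound, then stimulated 1 min at 37° C with 1 nM fMLP on fibrinogen-coated glass. Adherent cells fixed and counted by computer; mean ± SD, unpaired t-test.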

T1 sequence (P05230 whole entry): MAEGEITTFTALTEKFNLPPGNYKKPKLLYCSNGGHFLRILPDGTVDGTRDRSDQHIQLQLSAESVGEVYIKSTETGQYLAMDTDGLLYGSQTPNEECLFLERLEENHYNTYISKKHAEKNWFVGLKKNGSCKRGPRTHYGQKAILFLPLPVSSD
T2 sequence (P09038 134-288): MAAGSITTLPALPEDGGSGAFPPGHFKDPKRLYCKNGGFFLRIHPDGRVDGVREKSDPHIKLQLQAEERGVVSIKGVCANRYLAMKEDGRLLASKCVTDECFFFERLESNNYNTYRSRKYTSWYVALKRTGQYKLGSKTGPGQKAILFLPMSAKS
T4 sequence (P35968 20-1356): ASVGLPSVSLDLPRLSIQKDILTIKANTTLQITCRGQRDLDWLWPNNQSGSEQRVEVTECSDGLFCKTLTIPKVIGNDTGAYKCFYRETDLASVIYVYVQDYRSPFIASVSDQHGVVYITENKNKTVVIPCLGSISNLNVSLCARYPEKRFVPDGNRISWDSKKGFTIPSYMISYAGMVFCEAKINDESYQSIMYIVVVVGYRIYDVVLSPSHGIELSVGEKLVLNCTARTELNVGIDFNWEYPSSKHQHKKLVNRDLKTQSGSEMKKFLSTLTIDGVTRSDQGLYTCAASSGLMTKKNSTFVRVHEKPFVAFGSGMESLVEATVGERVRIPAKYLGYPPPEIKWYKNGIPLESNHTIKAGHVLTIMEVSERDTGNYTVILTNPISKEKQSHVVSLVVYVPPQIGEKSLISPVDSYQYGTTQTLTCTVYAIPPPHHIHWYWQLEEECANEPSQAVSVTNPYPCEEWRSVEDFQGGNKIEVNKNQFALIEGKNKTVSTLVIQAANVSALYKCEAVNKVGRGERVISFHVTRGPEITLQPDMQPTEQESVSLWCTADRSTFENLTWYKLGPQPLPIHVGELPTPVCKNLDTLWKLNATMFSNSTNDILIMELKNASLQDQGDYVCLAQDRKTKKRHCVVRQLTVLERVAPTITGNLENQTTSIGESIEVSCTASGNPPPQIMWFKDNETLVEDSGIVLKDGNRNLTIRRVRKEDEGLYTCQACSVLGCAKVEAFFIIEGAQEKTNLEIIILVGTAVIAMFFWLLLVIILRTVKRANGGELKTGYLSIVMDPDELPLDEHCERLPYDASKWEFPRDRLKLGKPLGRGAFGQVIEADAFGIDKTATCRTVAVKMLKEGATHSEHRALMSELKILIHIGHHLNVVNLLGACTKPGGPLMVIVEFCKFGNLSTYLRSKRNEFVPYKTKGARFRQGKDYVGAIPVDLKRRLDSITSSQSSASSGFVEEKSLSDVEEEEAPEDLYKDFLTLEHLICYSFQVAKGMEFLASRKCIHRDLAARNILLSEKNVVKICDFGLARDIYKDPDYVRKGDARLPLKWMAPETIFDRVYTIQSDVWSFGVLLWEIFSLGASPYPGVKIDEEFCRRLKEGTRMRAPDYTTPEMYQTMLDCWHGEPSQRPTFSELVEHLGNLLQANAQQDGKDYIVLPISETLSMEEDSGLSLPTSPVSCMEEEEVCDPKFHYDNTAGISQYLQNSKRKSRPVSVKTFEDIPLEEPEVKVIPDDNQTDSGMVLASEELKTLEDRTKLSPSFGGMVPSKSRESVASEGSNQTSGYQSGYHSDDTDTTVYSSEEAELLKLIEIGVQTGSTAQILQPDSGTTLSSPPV

Row | SMILES | IC50 (FGF-1) [µM] | IC50 (FGF-2) [µM] | IC50 (VEGF-A) [µM] | IC50 (VEGFR-2) [µM] | inhibition at 0.3 µM (Human neutrophils [1]) [%] | IC50 (Human neutrophils [1]) [µM] | Neutrophil adhesion inhibition (Human neutrophils [2]) [%]
1 | O=C(O)c1cc(O)c(C(=O)Nc2c(C(=O)O)cccc2C(=O)O)cc1O [Ia-013a, 2-(4-carboxy-2,5-dihydroxybenzamido)isophthalic acid] | 29 | 18 | 17 | ≥ 100 | 38.5 | 2.38 | 27.67
2 | O=C(O)c1cc(O)c(C(=O)Nc2ccc(C(=O)O)c(C(=O)O)c2)cc1O [Ia-014a, 4-(4-carboxy-2,5-dihydroxybenzamido)phthalic acid] | 20 | 20 | 88 | ≥ 100 | 61.3 | 1 | 9.667
3 | O=C(O)Cc1ccccc1NC(=O)c1cc(O)c(C(=O)O)cc1O [Ia-034a, 4-(2-(carboxymethyl)phenylaminocarbonyl)-2,5-dihydroxybenzoic acid] | 79 | 14 | 102 | ≥ 100 | 49.1 | 2.28 | 15
4 | O=C(O)c1cc(O)c(C(=O)NCCc2ccc(O)c(O)c2)cc1O [Ia-035a-2, 4-(2-(3,4-Dihydroxyphenyl)ethylaminocarbonyl)-2,5-dihydroxybenzoic acid] | 10 | 65 | 109 | 10 | 58.8 | 1.1 | 21.5
5 | O=C(O)c1cc(O)c(C(=O)NC(Cc2ccc(O)c(O)c2)C(=O)O)cc1O (stereo not drawn) [Ia-035a-3, 4-(1-Carboxy-2-(3,4-dihydroxyphenyl)ethylaminocarbonyl)-2,5-dihydroxybenzoic acid] | 34 | 207 | 198 | 10 | 79.6 | 0.66 | 22
6 | O=C(O)c1cc(O)c(C(=O)NCc2ccccc2C(=O)O)cc1O [Ia-053a, 4-(2-Carboxyphenylmethylaminocarbonyl)-2,5-dihydroxybenzoic acid] | ≥ 150 | 124 | 210 | ≥ 100 | 52.9 | 2.5 | 18.67
